Data as given in patent US20150250786A1, “PYRIMIDINE HYDROXY AMIDE COMPOUNDS AS PROTEIN DEACETYLASE INHIBITORS AND METHODS OF USE THEREOF” (THE TRUSTEES OF THE UNIVERSITY OF PENNSYLVANIA, priority 2012, published 2015).
“And” between values parts separate entries of the source, which are not always exact repeats. Equal entries are not always repeated. Where two headings read alike, the source gives them in different places.

Key:
[1] = tested on: RN46A-B14 serotonergic cell line; assay: Histone H3K9 acetylation in RN46A-B14 cells (Western blot); assay type: cell-based, rat; conditions: 2.5 μM, 4 hours
[2] = tested on: α-tubulin acetylation in mouse whole brain lysates; assay: α-tubulin acetylation in whole brain lysates after single i.p. administration; assay type: in vivo; conditions: compound 73 5 mg/kg, compound 101 50 mg/kg, tubastatin A 10 mg/kg, 30 min, 1 h, 4 h
[3] = tested on: mice; assay: Open-field test; assay type: in vivo, mouse
[4] = tested on: mice; assay: Marble-burying task; assay type: in vivo, mouse; conditions: acute administration
[5] = tested on: mice; assay: Elevated plus maze (EPM); assay type: in vivo, mouse; conditions: acute administration
[6] = tested on: NIH Swiss mice; C57BL/6J HDAC6 WT and KO mice; assay: Tail suspension test (TST); assay type: in vivo, mouse; conditions: NIH Swiss mice
[7] = Pharmacokinetics and brain bio-distribution in mice; assay type: in vivo, mouse; conditions: mouse; for Kp: brain, calculated over 2 hours
Experimental: […] Plasma samples were taken from all mice upon sacrifice. Brain samples were taken from the mice sacrificed at 5 and 15 minutes and 1 and 4 hours. The brain samples were homogenized in PBS and centrifuged at 14000 rpm for 5 minutes. The supernatant from the brain homogenate and the plasma samples were injected onto a LC/MS/MS for analysis. The compound level in the samples was determined by a standard curve in the appropriate matrix. Pharmacokinetic parameters were determined from the raw data by WinNonLin.

[8] = molecular target: HDAC1 (Homo sapiens, UniProt Q13547); assay: HDAC enzyme assay, HDAC1
Sequence of HDAC1 (Q13547 whole entry): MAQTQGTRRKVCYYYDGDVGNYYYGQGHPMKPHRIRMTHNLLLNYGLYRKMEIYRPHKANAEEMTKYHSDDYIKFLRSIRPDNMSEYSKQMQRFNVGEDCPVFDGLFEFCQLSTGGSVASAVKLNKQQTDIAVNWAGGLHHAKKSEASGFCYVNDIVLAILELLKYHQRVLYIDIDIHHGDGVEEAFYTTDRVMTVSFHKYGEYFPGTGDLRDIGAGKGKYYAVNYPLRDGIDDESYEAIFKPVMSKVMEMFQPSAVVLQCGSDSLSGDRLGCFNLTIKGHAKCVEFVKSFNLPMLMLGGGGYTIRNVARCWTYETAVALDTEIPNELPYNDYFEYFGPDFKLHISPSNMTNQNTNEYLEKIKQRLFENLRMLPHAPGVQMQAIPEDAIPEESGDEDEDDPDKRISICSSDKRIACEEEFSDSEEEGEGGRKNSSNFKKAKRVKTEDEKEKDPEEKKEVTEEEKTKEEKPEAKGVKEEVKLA

[9] = molecular target: HDAC3 (Homo sapiens, UniProt O15379); assay: HDAC enzyme assay, HDAC3
Sequence of HDAC3 (O15379 whole entry): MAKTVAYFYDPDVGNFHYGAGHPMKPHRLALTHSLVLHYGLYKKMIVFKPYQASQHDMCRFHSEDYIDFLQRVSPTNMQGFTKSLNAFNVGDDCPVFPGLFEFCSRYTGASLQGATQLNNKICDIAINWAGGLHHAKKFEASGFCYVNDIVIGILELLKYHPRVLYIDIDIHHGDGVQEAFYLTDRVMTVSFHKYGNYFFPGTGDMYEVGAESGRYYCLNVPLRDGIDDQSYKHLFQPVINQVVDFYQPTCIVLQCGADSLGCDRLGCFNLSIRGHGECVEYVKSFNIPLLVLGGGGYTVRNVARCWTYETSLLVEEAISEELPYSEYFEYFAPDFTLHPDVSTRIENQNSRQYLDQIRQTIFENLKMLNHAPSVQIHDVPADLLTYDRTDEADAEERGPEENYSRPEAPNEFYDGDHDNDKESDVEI
Sequence of HDAC3 (Q9Y618 395-489 partner limits assumed): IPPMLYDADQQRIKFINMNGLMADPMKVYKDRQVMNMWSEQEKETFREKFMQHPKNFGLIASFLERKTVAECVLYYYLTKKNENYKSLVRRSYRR

[10] = molecular target: T1, HDAC6 (Homo sapiens, UniProt Q9UBN7); assay: HDAC enzyme assay, HDAC6
T1 sequence (Q9UBN7 1-1215): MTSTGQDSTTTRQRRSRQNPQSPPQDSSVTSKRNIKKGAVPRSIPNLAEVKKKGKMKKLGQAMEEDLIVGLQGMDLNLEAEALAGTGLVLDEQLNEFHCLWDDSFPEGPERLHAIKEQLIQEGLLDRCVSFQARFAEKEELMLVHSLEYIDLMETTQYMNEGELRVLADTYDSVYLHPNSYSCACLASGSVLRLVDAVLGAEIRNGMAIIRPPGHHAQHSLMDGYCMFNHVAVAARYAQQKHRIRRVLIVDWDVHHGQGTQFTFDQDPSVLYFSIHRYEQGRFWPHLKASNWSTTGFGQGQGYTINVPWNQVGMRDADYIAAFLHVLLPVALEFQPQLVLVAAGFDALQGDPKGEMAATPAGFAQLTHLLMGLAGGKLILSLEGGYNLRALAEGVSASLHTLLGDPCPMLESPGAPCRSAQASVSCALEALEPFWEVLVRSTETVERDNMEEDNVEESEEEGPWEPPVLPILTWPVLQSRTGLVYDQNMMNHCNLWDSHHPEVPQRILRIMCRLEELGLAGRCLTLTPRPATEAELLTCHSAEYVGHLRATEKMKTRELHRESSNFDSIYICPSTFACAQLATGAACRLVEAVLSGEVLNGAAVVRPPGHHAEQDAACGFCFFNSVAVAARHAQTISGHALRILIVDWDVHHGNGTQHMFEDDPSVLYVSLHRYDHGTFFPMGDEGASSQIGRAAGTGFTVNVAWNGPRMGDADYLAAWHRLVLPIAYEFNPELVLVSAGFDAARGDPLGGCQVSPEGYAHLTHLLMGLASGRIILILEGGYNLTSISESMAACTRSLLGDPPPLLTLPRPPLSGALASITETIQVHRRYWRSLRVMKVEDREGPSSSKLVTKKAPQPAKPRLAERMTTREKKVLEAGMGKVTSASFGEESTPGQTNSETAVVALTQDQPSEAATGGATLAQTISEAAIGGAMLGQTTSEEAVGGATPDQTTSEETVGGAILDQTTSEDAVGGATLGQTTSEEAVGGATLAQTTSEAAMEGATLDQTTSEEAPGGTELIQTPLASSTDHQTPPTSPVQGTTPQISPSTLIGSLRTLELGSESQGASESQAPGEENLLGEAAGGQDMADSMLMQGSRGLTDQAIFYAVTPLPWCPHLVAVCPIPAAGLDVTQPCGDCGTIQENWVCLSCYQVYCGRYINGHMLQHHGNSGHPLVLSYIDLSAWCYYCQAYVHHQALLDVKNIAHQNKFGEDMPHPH

[11] = tested on: all other class II HDAC isoforms; assay: HDAC inhibition, other class II isoforms; conditions: read-out: IC50 against all other class II HDAC isoforms

**Q.** With `O=C(NO)c1cnc(NC2(c3cccc(F)c3)CCCCC2)nc1` [Compound 101, 2-((1-(3-fluorophenyl)cyclohexyl)amino)-N-hydroxypyrimidine-5-carboxamide] as the compound, how does the “change in histone H3K9 acetylation” value [1] read?
**A.** no significant change

**Q.** What about the “α-tubulin acetylation in whole brain lysates” value [2] of the same compound?
**A.** significant increases

**Q.** What about the “exploratory activity in novel open-field arena” value ([3]; acute, compounds 73, 101 50 mg/kg, tubastatin A 10 mg/kg) of the same compound?
**A.** hyperlocomotor effects

**Q.** And the “distance in the center of the open field” value ([3]; mouse, in vivo)?
**A.** 419±73 beam breaks

**Q.** What about the “open-field exploration in neural cell selective HDAC6 KO mice” value ([3]; same doses (50 mg/kg)) of the same compound?
**A.** did not significantly alter

**Q.** What about the “number of marbles buried” value [4] of the same compound?
**A.** significantly reduced

**Q.** What about the “behavioral changes / time in the open arms of the maze” value [5] of the same compound?
**A.** neither compound 73 nor compound 101 produced behavioral changes

**Q.** And the “immobility in TST” value ([6]; 5 mg/kg)?
**A.** No significant effect

**Q.** What about the “immobility in TST” value ([6]; 50 mg/kg i.p., 30 minutes) of the same compound?
**A.** Significant reductions

**Q.** And the Kp ([7]; C57BL/6J, intraperitoneal, read-out: AUCBrain/AUCplasma)?
**A.** 1.26

**Q.** And the concentration at 30 min ([7]; C57BL/6J, plasma, intraperitoneal, 5 mg/kg, read-out: 30 min plasma concentration (ng/ml) - 5 mg/kg)?
**A.** 496 ng/mL

**Q.** And the concentration at 30 min ([7]; C57BL/6J, plasma, intraperitoneal, 50 mg/kg, read-out: 30 min plasma concentration (ng/ml) - 50 mg/kg)?
**A.** 1360 ng/mL

**Q.** What about the Cmax ([7]; C57BL/6J, plasma, ip, 5 mg/kg, mice, acute i.p. dosing, read-out: Cmax) of the same compound?
**A.** 915 ng/mL

**Q.** What about the half-life ([7]; C57BL/6J, plasma, ip, mice, acute i.p. dosing, read-out: T½ plasma (converted)) of the same compound?
**A.** 30 min

**Q.** And the Kp ([7]; intraperitoneal, read-out: AUCBrain/AUCplasma ratio)?
**A.** > 1

**Q.** What about the concentration at 30 min ([7]; plasma, intraperitoneal, acute 50 mg/kg injection, read-out: plasma level at t=30 minutes) of the same compound?
**A.** 1360 ng/mL and 4.1 µM

**Q.** What about the concentration at 2 h ([7]; plasma, intraperitoneal, read-out: plasma concentration after two hours) of the same compound?
**A.** < 10 ng/mL

**Q.** What about the half-life ([7]; plasma, intraperitoneal, read-out: plasmatic half-life) of the same compound?
**A.** 12 min

**Q.** And the “HDAC1 fold versus HDAC6 (in brackets)” value ([8]; Table 3)?
**A.** 283 x

**Q.** What about the “HDAC1 fold versus HDAC6 (in brackets)” value ([8]; selectivity HDAC6 over HDAC1) of the same compound?
**A.** (283.5x)

**Q.** What about the “HDAC3 fold versus HDAC6 (in brackets)” value [9] of the same compound?
**A.** (1498.8x)

**Q.** And the “HDAC3 fold versus HDAC6 (in brackets)” value ([9]; Table 3)?
**A.** 1496 x

**Q.** And the IC50 [10]?
**A.** 7.5 nM

**Q.** And the “average selectivity over class I HDACs” value [10]?
**A.** 700 fold

**Q.** What about the IC50 [11] of the same compound?
**A.** > 1000 nM
